Values quoted from earlier work in patent US20100323978A1, “Non-aqueous oil delivery system for ophthalmic drugs” (priority 2009, published 2010).
Where a name gives a salt, the structure may show the parent alone. Read-outs that look alike come from different tables or passages of the source.

Assays:
[1] = warning label
rabbits = details: 10 micro Liters eye drop
rabbit eyes = details: aqueous suspension injected into the eyes for three days
[2] = 0.15 Molar suspended in sesame seed oil

CN(C)CCOC(=O)C(c1ccccc1)C1(O)CCCC1 (centres unmarked) [Cyclopentolate HCl]
stability of powder [1]: not stable at room temperature

CNC[C@H](O)c1cccc(O)c1 [phenylephrine HCl]
mydriasis in the rabbit (rabbits; [2]): ineffective | mydriasis in the rabbit (rabbits; 0.5 Molar suspended in sesame seed oil): slightly effective

CNC[C@H](O)c1cccc(O)c1 [phenylephrine free base]
mydriasis in the rabbit (rabbits; [2]): produced mydriasis

alpha-hydroxy-testosterone
intra-ocular pressure (rabbit eyes): decreased
